According to article PMC9408991, “Antitumor Effects of a New Retinoate of the Fungal Cytotoxin Illudin M in Brain Tumor Models” (International Journal of Molecular Sciences, 2022):
Like-named read-outs stand apart in the source and are kept apart here.

What was measured:
[1] = tested on: 518A2 melanoma cells; experiment: MTT cell viability assay, 518A2 melanoma; assay type: cell-based; conditions: Homo sapiens, read-out: Inhibitory concentration IC50
Experimental: 518A2 (Department of Radiotherapy, Medical University of Vienna, Vienna, Austria) melanoma, KB-V1^Vbl (ACC-149) cervix carcinoma, MCF-7^Topo (ACC-115) breast carcinoma, HT29 (ACC-299) colon carcinoma were cultivated in Dulbecco’s Modified Eagle Medium (DMEM) supplemented with 10% fetal bovine serum and 1% antibiotic-antimycotic at 37 °C, 5% CO2, and 95% humidity. To keep MCF-7^Topo and KB-V1^Vbl cells resistant, the maximum-tolerated doses of topotecan or vinblastine were added to the cell culture medium 24 h after every passage. The human HL60 leukemia cells were obtained from the German National Resource Center for Biological Material (DSMZ), Braunschweig. Neuroectodermal stem cells NE-4C (ATCC No. CRL-2925), primary mouse astrocytes, rat glioma C6 (ATCC No. CCL-107) and human glioma U87 (ATCC No. HTB-14) were used.
Non-GBM cells (5 × 10^4 cells/mL, 100 µL/well) were grown in 96-well plates for 24 h. […] After the addition of 12.5 µL of a 0.5% MTT solution in PBS, the cells were incubated for 3 h at 37 °C so that the water-soluble MTT could be converted to formazan crystals. Then, the plates were centrifuged (300× g, 5 min, 4 °C), the medium withdrawn, and the formazan dissolved in 25 µL of DMSO containing 10% sodium dodecylsulfate (SDS) and 0.6% acetic acid for at least 2 h at 37 °C. In the case of the HL60 cells, after 2 h, the precipitate of formazan crystals was redissolved in a 10% solution of SDS in DMSO containing 0.6% acetic acid.

[2] = tested on: brain-derived cells (NE-4C, neurons, astrocytes, C6, U87, U251, MZ-54); experiment: MTT assay, summary over brain-derived cells; assay type: cell-based; conditions: 48 h, read-out: IC50 (48 h) values, range over brain-derived cells
Experimental: Non-GBM cells (5 × 10^4 cells/mL, 100 µL/well) were grown in 96-well plates for 24 h. Then, they were treated with various concentrations of the test compounds or vehicle (DMSO, or EtOH) for 72 h at 37 °C. After the addition of 12.5 µL of a 0.5% MTT solution in PBS, the cells were incubated for 3 h at 37 °C so that the water-soluble MTT could be converted to formazan crystals. Then, the plates were centrifuged (300× g, 5 min, 4 °C), the medium withdrawn, and the formazan dissolved in 25 µL of DMSO containing 10% sodium dodecylsulfate (SDS) and 0.6% acetic acid for at least 2 h at 37 °C. In the case of the HL60 cells, after 2 h, the precipitate of formazan crystals was redissolved in a 10% solution of SDS in DMSO containing 0.6% acetic acid.
Adherently grown GBM cells were seeded at 5 × 10^4 cells/mL and floating spheres at 8 × 10^4 cells/mL in 100 µL/well and incubated as above for 48 or 72 h at 37 °C. Afterward, 10 µL of a 5 mg/mL MTT solution in PBS was added to the cells for 3 h at 37 °C. Then, the spheres were centrifuged shortly to collect the cells on the bottom of the plate, and the medium was removed by careful pipetting for both adherently grown and floating sphere GBM cultures. […] The absorbance of formazan (λ = 570 nm), and background (λ = 630 nm) was measured with a microplate reader (Tecan Spark, Tecan Deutschland GmbH, Crailsheim, Germany).

[3] = tested on: co-cultures of neuronal cells and U87 glioma cells; experiment: Co-culture of primary neurons and U87 glioma cells; assay type: cell-based, mouse / human; conditions: 1 µM
Experimental: The selectivity of illudins 1 and 2 for U87 glioblastoma cells versus normal neuronal cells was evaluated by applying them to co-cultures of these cells serving as a surrogate brain tumor model. To this end, isolated murine primary neurons were grown on IBIDI dishes and after […] and the establishment of neuronal aggregates, the glioma U87 cells (~ 25,000 cells) were added to the neuronal culture. After 12 h, 1 and 2 were applied in 1 µM concentrations and the response of the different cells was monitored over a period between 15 and 48 h post incubation (Figure 8). In the control samples, the number of proliferating U87 cells increased with time and overgrew the diminishing number of differentiating neurons.
NE-4C cells derived from the anterior brain vesicles of p53-deficient 9-day-old mouse embryos were maintained in Minimum Essential Medium (MEM; Sigma Aldrich, Taufkirchen, Germany) supplemented with 5% fetal calf serum (FCS; Invitrogen-Gibco, Carlsbad, CA, USA), 4 mM glutamine (Sigma-Aldrich, Taufkirchen, Germany) and 40 ug/mL gentamycin (Chinoin, Budapest, Hungary). For maintenance, subconfluent cultures were regularly split by trypsinization (0.05 w/v% trypsin in PBS) into poly-L-lysine-coated Petri dishes. Primary astrocytes were isolated from whole brains of neonatal (P0-P3) mice, as described earlier. In brief, meninges were removed, and the tissue pieces were subjected to enzymatic dissociation, using 0.05% w/v trypsin and 0.05% w/v DNase for 10 min at room temperature. The cells were plated onto poly-L-lysine coated plastic surfaces and grown in MEM supplemented with 10% fetal calf serum, 4 mM glutamine and 40 ug/mL gentamycin. Primary neuronal cultures were prepared from embryonic (E15–E16) mouse (CD1) forebrains, as described earlier. In brief, cell suspensions were prepared by mechanical dissociation over a nylon mesh with a pore diameter of 40–42 μm. The cells were seeded at 10^5 cells/cm^2 density onto PLL-coated surfaces. The cultures were maintained in MEM supplemented with 5% FCS, 4 mM glutamine, 40 µg/mL gentamicin and 2.5 μg/mL amphotericin B (Sigma). In co-culture experiments, U87 glioma cells were seeded onto established neuronal cultures at DIV3 in a 25,000 cell/cm^2 density.
Figure 8 Co-culture of neuronal cells and U87 glioma cells in the absence or presence of 1 µM of 1 or 2. The neuronal aggregates are marked by arrowheads. Scale bar: 100 µm.

Row | Compound | IC50 ([1]; 518A2, 24 h exposure) | IC50 ([1]; 518A2, 48 h exposure) | IC50 [2] | response of neurons and U87 cells in co-culture ([3]; 15 h after treatment) | response of neurons and U87 cells in co-culture ([3]; 48 h after treatment)
1 | CC1=C2C(=CC(C)(C)[C@@H]2O)C(=O)[C@](C)(O)C12CC2 [Compound 1, illudin M] | 40 ± 10 nM | 20 ± 10 nM | 50 to 400 nM | considerable cellular fragmentation | merely cell debris
2 | CC1=C(/C=C/C(C)=C/C=C/C(C)=C/C(=O)O[C@@H]2C3=C(C)C4(CC4)[C@@](C)(O)C(=O)C3=CC2(C)C)C(C)(C)CCC1 [Compound 2, illudin M retinoate] | 5000 ± 300 nM | 4000 ± 700 nM |  | healthy and compact neuronal aggregates | many neurons were still present
